# Assays:
# [1] = test system: TSST-1 production by S. aureus FRI-1169; format: cell-based, Staphylococcus aureus
# [2] = test system: TSST-1 production by S. aureus FRI-1187; format: cell-based, Staphylococcus aureus
smiles,measurement,setting,value
"Oc1cc(Cl)ccc1Oc1ccc(Cl)cc1Cl [Triclosan, triclosan]",TSST-1 production compared to the control,[1],produced less TSST-1
same,TSST-1 production compared to the control,[2],produced less TSST-1
